# Measurements as given in paper PMC9234961 (Journal of Medicinal Chemistry, 2022).
# Tests used:
# kinases (468) [1] = biological target: kinases (468) (Homo sapiens, UniProt P29323); details: EPHB2; 1000 nM
# kinases (468) [2] = biological target: kinases (468) (Homo sapiens, UniProt P06213); details: INSR; 1000 nM
# kinases (468) [3] = biological target: kinases (468) (Homo sapiens, UniProt P21802); details: FGFR2; 1000 nM
# kinases (468) [4] = biological target: kinases (468) (Homo sapiens, UniProt Q92772); details: CDKL2; 1000 nM
# kinases (468) [5] = biological target: kinases (468) (Homo sapiens, UniProt Q08345); details: DDR1; 1000 nM
# kinases (468) [6] = biological target: kinases (468) (Homo sapiens, UniProt P51956); details: NEK3; 1000 nM
# kinases (468) [7] = biological target: kinases (468) (Homo sapiens, UniProt Q9Y463); details: DYRK1B; 1000 nM
# kinases (468) [8] = biological target: kinases (468) (Homo sapiens, UniProt Q15375); details: EPHA7; 1000 nM
# kinases (468) [9] = biological target: kinases (468) (Homo sapiens, UniProt P00533, DEL752-759); details: EGFR(S752-I759del); 1000 nM
# kinases (468) [10] = biological target: kinases (468) (Homo sapiens, UniProt P49760); details: CLK2; 1000 nM
# kinases (468) [11] = biological target: kinases (468) (Homo sapiens, UniProt Q02156); details: PRKCE; 1000 nM
# kinases (468) [12] = biological target: kinases (468) (Homo sapiens, UniProt P68400); details: CSNK2A1; 1000 nM
# kinases (468) [13] = biological target: kinases (468) (Homo sapiens, UniProt Q8WU08); details: kinase YANK1 (Entrez STK32A); compound concentration 1000 nM
# kinases (468) [14] = biological target: kinases (468) (Homo sapiens, UniProt Q8TD19); details: NEK9; 1000 nM
# kinases (468) [15] = biological target: kinases (468) (Homo sapiens, UniProt P49841); details: GSK3B; 1000 nM
# kinases (468) [16] = biological target: kinases (468) (Homo sapiens, UniProt Q96PY6); details: NEK1; 1000 nM
# kinases (468) [17] = biological target: kinases (468) (Homo sapiens, UniProt P22607, G697C); details: FGFR3(G697C); 1000 nM
# kinases (468) [18] = biological target: kinases (468) (Homo sapiens, UniProt P43403); details: kinase ZAP70 (Entrez ZAP70); compound concentration 1000 nM
# kinases (468) [19] = biological target: kinases (468) (Homo sapiens, UniProt P07949, V804M); details: kinase RET(V804M) (Entrez RET); compound concentration 1000 nM
# kinases (468) [20] = biological target: kinases (468) (Homo sapiens, UniProt Q9Y6E0); details: MST3 (STK24); 1000 nM
# kinases (468) [21] = biological target: kinases (468) (Homo sapiens, UniProt Q16512); details: PKN1; 1000 nM
# kinases (468) [22] = biological target: kinases (468) (Homo sapiens, UniProt P36888, R834Q); details: FLT3(R834Q); 1000 nM
# kinases (468) [23] = biological target: kinases (468) (Homo sapiens, UniProt Q14164); details: IKK-epsilon (IKBKE); 1000 nM
# kinases (468) [24] = biological target: kinases (468) (Homo sapiens, UniProt Q99755); details: PIP5K1A; 1000 nM
# kinases (468) [25] = biological target: kinases (468) (Homo sapiens, UniProt P36897); details: kinase TGFBR1 (Entrez TGFBR1); compound concentration 1000 nM
# kinases (468) [26] = biological target: kinases (468) (Homo sapiens, UniProt O94804); details: LOK (STK10); 1000 nM
# kinases (468) [27] = biological target: kinases (468) (Homo sapiens, UniProt Q92630); details: DYRK2; 1000 nM
# kinases (468) [28] = biological target: kinases (468) (Homo sapiens, UniProt Q9NRP7); details: kinase STK36 (Entrez STK36); compound concentration 1000 nM
# kinases (468) [29] = biological target: kinases (468) (Homo sapiens, UniProt Q9Y6R4); details: MAP3K4; 1000 nM
# kinases (468) [30] = biological target: kinases (468) (Homo sapiens, UniProt P36507); details: MEK2 (MAP2K2); 1000 nM
# kinases (468) [31] = biological target: kinases (468) (Homo sapiens, UniProt O14578); details: CIT; 1000 nM
# kinases (468) [32] = biological target: kinases (468) (Homo sapiens, UniProt O60674); details: JAK2(JH1domain-catalytic); 1000 nM
# kinases (468) [33] = biological target: kinases (468) (Homo sapiens, UniProt P49761); details: CLK3; 1000 nM
# kinases (468) [34] = biological target: kinases (468) (Homo sapiens, UniProt Q14289); details: PYK2 (PTK2B); 1000 nM
# kinases (468) [35] = biological target: kinases (468) (Homo sapiens, UniProt P22694); details: PKAC-beta (PRKACB); 1000 nM
# Chain of kinases (468) (Homo sapiens, UniProt P06213) (P06213 28-1382): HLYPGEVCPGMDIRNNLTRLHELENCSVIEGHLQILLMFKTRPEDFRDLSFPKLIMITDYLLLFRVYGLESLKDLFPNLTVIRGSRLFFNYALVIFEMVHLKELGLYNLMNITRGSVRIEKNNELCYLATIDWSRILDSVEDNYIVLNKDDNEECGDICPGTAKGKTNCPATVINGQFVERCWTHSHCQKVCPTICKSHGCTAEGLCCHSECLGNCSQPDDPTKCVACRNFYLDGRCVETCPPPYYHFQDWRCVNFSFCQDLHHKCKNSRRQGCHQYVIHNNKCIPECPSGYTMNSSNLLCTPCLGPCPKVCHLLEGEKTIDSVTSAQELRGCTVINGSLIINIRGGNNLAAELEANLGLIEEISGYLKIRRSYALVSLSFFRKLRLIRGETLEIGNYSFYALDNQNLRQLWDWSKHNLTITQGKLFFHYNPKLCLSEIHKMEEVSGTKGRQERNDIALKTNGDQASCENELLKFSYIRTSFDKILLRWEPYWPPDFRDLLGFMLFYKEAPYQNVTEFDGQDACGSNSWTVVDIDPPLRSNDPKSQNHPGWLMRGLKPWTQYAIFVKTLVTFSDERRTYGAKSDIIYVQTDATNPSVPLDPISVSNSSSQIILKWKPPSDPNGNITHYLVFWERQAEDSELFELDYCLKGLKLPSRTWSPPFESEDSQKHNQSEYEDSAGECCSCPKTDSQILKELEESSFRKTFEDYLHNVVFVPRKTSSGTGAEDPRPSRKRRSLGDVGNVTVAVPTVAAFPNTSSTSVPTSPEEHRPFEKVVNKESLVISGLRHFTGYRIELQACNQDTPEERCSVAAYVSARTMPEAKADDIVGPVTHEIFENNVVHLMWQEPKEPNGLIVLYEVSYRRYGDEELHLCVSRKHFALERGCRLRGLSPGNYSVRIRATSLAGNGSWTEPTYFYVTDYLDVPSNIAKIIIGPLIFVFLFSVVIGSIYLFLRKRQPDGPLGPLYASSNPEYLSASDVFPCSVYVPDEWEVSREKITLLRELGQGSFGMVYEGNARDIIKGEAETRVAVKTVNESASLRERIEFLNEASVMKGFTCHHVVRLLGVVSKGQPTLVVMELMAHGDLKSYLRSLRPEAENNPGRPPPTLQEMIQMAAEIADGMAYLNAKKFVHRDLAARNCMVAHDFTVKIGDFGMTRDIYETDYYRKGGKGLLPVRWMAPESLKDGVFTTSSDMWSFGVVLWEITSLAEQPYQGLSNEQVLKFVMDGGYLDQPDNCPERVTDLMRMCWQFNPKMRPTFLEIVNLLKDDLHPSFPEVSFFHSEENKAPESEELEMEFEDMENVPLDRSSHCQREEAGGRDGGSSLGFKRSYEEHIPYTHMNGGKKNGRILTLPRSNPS
# Chain of kinases (468) (Homo sapiens, UniProt Q92630) (Q92630 whole entry): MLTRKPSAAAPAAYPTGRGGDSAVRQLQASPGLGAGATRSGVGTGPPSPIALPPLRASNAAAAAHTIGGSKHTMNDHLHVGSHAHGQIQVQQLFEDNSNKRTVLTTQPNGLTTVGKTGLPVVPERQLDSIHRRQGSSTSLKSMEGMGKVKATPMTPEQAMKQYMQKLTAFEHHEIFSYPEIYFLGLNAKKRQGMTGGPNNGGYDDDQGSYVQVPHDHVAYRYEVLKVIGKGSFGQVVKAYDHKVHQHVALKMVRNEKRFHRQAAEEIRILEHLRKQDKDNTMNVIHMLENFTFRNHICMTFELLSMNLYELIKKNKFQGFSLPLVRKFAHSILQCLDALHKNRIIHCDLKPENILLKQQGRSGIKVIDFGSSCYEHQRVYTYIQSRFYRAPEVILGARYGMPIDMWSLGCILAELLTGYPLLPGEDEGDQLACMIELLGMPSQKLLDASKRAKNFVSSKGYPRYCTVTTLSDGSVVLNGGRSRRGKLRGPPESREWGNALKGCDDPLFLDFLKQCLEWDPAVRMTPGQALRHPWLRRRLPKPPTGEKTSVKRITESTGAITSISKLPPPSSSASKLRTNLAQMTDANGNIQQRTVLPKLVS
# Chain of kinases (468) (Homo sapiens, UniProt P49841) (P49841 whole entry): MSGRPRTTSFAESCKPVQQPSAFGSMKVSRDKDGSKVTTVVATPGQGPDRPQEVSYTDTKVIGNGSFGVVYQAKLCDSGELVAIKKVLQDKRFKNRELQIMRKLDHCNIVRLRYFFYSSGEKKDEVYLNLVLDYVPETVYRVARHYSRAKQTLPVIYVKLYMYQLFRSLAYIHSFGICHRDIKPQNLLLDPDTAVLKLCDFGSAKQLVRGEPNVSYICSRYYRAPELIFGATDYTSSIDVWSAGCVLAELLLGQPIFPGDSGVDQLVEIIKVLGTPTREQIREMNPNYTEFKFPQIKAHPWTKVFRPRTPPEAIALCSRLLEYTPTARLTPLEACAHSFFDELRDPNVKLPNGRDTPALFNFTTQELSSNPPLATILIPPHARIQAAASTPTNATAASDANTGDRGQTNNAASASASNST
# Chain of kinases (468) (Homo sapiens, UniProt P00533, DEL752-759) (P00533 25-1210, looked up, stated change not applied): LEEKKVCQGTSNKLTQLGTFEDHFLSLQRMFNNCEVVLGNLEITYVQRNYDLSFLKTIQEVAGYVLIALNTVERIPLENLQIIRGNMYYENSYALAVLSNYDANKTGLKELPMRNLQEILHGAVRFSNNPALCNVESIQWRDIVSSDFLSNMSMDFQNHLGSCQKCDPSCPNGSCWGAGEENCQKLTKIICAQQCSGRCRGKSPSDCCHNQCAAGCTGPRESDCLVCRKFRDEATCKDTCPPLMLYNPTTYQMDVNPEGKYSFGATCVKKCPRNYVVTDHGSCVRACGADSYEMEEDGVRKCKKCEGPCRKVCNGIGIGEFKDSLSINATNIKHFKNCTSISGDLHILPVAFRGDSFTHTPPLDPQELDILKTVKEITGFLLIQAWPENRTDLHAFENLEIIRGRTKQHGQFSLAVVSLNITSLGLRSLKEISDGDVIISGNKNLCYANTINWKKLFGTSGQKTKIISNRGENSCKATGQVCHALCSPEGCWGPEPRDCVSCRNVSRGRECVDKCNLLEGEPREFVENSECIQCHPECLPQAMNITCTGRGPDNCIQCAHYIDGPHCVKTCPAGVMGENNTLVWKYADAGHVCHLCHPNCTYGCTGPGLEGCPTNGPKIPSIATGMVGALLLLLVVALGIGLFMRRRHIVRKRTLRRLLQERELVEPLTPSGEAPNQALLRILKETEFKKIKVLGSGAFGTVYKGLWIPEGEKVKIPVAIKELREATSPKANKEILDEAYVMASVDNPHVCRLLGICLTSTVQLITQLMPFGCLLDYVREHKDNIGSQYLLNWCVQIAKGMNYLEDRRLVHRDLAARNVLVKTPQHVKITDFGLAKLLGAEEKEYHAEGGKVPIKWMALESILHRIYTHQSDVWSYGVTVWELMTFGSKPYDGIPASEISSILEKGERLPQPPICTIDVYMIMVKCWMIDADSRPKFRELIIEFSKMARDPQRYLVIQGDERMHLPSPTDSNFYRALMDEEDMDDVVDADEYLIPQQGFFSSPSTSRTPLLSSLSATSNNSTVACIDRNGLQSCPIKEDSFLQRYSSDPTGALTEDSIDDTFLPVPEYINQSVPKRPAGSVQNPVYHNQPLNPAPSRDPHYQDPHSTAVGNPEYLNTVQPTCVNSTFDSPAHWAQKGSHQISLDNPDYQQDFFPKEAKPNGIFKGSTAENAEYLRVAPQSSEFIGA
# Chain of kinases (468) (Homo sapiens, UniProt Q92772) (Q92772 whole entry): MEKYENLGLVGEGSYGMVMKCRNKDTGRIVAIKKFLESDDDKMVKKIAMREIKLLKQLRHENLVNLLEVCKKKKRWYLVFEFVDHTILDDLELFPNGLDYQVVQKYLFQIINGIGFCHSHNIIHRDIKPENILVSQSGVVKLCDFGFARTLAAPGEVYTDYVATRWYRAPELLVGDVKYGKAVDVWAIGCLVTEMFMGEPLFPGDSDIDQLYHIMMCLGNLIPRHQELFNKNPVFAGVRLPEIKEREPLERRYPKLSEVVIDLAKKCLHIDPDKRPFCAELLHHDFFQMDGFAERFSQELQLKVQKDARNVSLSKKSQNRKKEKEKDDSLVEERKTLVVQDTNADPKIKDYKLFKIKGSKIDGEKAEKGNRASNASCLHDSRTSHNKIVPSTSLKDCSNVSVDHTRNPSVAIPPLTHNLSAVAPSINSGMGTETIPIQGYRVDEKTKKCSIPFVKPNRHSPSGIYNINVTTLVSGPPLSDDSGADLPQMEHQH
# Chain of kinases (468) (Homo sapiens, UniProt P22607, G697C) (P22607 23-806 G697C): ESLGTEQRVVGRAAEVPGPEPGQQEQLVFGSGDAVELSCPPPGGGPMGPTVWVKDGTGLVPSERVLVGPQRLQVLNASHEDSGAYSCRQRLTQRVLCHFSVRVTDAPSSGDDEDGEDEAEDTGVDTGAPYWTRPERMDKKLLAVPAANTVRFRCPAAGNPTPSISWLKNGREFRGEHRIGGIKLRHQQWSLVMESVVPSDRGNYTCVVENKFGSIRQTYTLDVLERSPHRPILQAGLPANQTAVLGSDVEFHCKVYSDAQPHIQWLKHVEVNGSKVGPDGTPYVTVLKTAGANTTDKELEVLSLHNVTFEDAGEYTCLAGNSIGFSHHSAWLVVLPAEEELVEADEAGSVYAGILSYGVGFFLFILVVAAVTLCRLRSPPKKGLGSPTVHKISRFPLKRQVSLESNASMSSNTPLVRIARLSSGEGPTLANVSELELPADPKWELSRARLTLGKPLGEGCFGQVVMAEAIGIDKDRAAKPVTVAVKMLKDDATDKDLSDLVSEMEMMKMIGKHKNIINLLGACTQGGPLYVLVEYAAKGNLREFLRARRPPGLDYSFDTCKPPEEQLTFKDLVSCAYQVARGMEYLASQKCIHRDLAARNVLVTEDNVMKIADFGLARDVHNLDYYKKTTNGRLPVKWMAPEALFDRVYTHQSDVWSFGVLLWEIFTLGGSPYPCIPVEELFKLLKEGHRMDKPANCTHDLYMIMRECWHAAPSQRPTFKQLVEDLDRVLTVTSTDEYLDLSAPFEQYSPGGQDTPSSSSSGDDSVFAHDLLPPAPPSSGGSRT
smiles,measurement,setting,value
C[C@H]1C[C@@H](O)CN(c2ncc(Cl)c(Nc3ccc4c(c3)c3c(c(=O)n4C)OCC(F)(F)[C@H](C4CC4)N3)n2)C1 [CCT373566_9A],Percent Control,kinases (468) [1],96%
same,Percent Control,kinases (468) [2],98%
same,Percent Control,kinases (468) [3],100%
same,Percent Control,kinases (468) [4],100%
same,Percent Control,kinases (468) [5],100%
same,Percent Control,kinases (468) [6],98%
same,Percent Control,kinases (468) [7],87%
same,Percent Control,kinases (468) [8],100%
same,Percent Control,kinases (468) [9],86%
same,Percent Control,kinases (468) [10],68%
same,Percent Control,kinases (468) [11],98%
same,Percent Control,kinases (468) [12],91%
same,Percent Control,kinases (468) [13],98%
same,Percent Control,kinases (468) [14],95%
same,Percent Control,kinases (468) [15],94%
same,Percent Control,kinases (468) [16],98%
same,Percent Control,kinases (468) [17],99%
same,Percent Control,kinases (468) [18],100%
same,Percent Control,kinases (468) [19],97%
same,Percent Control,kinases (468) [20],80%
same,Percent Control,kinases (468) [21],100%
same,Percent Control,kinases (468) [22],100%
same,Percent Control,kinases (468) [23],100%
same,Percent Control,kinases (468) [24],77%
same,Percent Control,kinases (468) [25],89%
same,Percent Control,kinases (468) [26],100%
same,Percent Control,kinases (468) [27],91%
same,Percent Control,kinases (468) [28],91%
same,Percent Control,kinases (468) [29],100%
same,Percent Control,kinases (468) [30],79%
same,Percent Control,kinases (468) [31],99%
same,Percent Control,kinases (468) [32],97%
same,Percent Control,kinases (468) [33],97%
same,Percent Control,kinases (468) [34],98%
same,Percent Control,kinases (468) [35],80%
